Measured values published in US7335668B2, “Pharmaceutical composition for therapy of interstitial cystitis” (priority 2001, dated 2008).

What was measured:
[1] = test system: capsaicin-sensitive sensory nerve; test: Plasma protein extravasation induced by capsaicin in the mouse bladder (Evans blue); format: in vivo; settings: for reduction of capsaicin-induced increase in Evans blue dye content in the bladder: female Balb/c mice, 100 μL, about one hour before capsaicin 300 μg/kg i.v.; for intravesical concentration that inhibited extravascular leakage of plasma proteins (depressant action on capsaicin-sensitive sensory nerve): mouse bladder, infused intravesically
Experimental: In the experiment, four or five female Balb/c mice (Japan SLC, Inc.) per group were used. A catheter was inserted into the bladder of a mouse anesthetized with urethane (intraperitoneally administered with 0.15 ml of a 20% solution per mouse) via the urethra, and after emptying the bladder, a physiological saline or drug solution was injected. This catheter was prepared by blunting the tip of a 24-guage hypodermic needle and making a side hole at 2 mm from the newly prepared tip. About one hour after the instillation into the bladder, extravascular leakage of plasma proteins due to inflammatory reaction caused by stimulation of the capsaicin-sensitive sensory nerve according to the method of Maggi, et al. (Nauny-Schmiedeberg's Arch. Pharmacol., 336: pp.546-555(1987)). That is Evans blue (30 mg/kg) a dye bound by plasma proteins and capsaicin (300 μg/kg) were administered to the mouse from the tail vein, and precisely five minutes after the administration, the mouse was killed by cervical dislocation, then the bladder was removed. After removing urine and blood remaining in the tissue, the dye in the organs was quantitatively determined. Evans blue dye was extracted from the bladder by placing the tissue in 150 μL of formamide overnight, and was quantitatively determined by measuring light absorbance at a wavelength of 620 nm of 100 μL supernatant in a 96-well microplate. In addition, the content of Evans blue dye in one milligram of wet tissue was calculated. Moreover, the mouse intravesically instilled with physiological saline and intravenously administered with a capsaicin-free Evans blue solution served as a normal control. […] Capsaicin and formamide were purchased from Wako Pure Chemical Industries, Ltd., and Evans blue was purchased from Aldrich. […] Results were shown as [(mean values)±(standard errors of the mean)]. The Student's t-test was used to determine the significance of difference between the group of mice receiving […] saline and stimulated with capsaicin e and the group of normal control mice.

[2] = test system: rhythmic bladder contraction; settings: as disclosed in International Patent Publication No. 96/20194; cited from earlier work

| SMILES | reduction of capsaicin-induced increase in Evans blue dye content in the bladder ([1]; injected intravesically at 1 μM) | reduction of capsaicin-induced increase in Evans blue dye content in the bladder ([1]; injected intravesically at 10 μM) | reduction of capsaicin-induced increase in Evans blue dye content in the bladder ([1]; injected intravesically at 100 μM) | intravesical concentration that inhibited extravascular leakage of plasma proteins (depressant action on capsaicin-sensitive sensory nerve) [1] | effect on rat rhythmic bladder contraction [2] |
| --- | --- | --- | --- | --- | --- |
| O=C(O[C@H]1CN2CCC1CC2)N1CCc2ccccc2[C@@H]1c1ccccc1 [Compound 1, (+)-(1S,3′R)-quinuclidin-3′-yl 1-phenyl-1,2,3,4-tetrahydroisoquinoline-2-carboxylate] | 52% | 76% | 80% | ≥ 1 µM | – |
| O=C(OC1CN2CCC1CC2)N1CCc2ccccc2C1c1ccccc1 (stereo not drawn) [Compound A, quinuclidin-3′-yl 1-phenyl-1,2,3,4-tetrahydroisoquinoline-2-carboxylate] | – | – | – | ≥ 1 µM | inhibitory effects on rat rhythmic bladder contraction |
